Test results published in patent US9175906B2, “Drug particles from freezing onto a surface” (BOARD OF REGENTS, THE UNIVERSITY OF TEXAS SYSTEM, priority 2003, dated 2015).
Several values for one entry are separate records, joined by “and”; a condition that tells them apart may be missing. Equal entries are not always repeated.

What was measured:
[1] = Particle size analysis (Beckman Coulter Counter) after redispersion in water; assay type: physicochemical; details: bulk drug powder as received, redispersed in water
Procedure: (§1) • Particle Size Analysis. […] Dissolution obtained using the following method is also referred to herein as “in vitro dissolution”. The dissolution media used varied with the drug substance, and is specified below. The dissolution media was heated to 37° C. and degassed. Dissolution was performed utilizing three vessels per experiment. 11 to 12 mg of drug particles prepared according to the present invention was added to each vessel for dissolution analysis. Dissolution samples were filtered automatically into test tubes containing 0.1 mL of acetonitrile, mixed with a vortex mixer, filtered and analyzed by HPLC. Samples were taken at 2, 5, 10, 15, 20, 30, 60, and 120 minutes. At the 60 min. point the agitation speed was increased to 200 rpm to ensures complete dissolution by 120 minutes. The 120 min. reading is the infinity time reading and the infinity time is used to calculate the potency. […] Crystallinity was determined by X-ray diffraction methods using a Bruker D-8 automated diffractometer. • Atmospheric Freeze Drying (ATMFD). ATMFD was one method of solvent removal used in the following examples. Heat transfer fluid was circulated through the circulating jacket of the heat exchanger, that was used to cool the drying gas then to the jacket of the ATMFD unit. Chilled nitrogen gas is flowed through the bottom of the ATMFD unit to sublime the solvent(s) away from the drug (s) and fluidizing the solids. The ATMFD unit and the nitrogen gas temperature are slowly warmed to ambient temperature. After the ATMFD portion of the process was complete the solid was collected from either the cyclone or the ATMFD Unit. • Freeze Drying. Freeze drying was an alternative solvent removal method used in some of the following examples. The frozen solution that was prepared was transferred to ajar cooled with dry ice. The processed solid in the chilled container was placed on a Virtis freeze dryer and dried for app. 12-24 hr at approximately 100 mtorr vacuum.

[2] = USP Dissolution Apparatus Method 2 (in vitro dissolution); assay type: physicochemical; details: 37° C.
Procedure: as §1

[3] = deionized water containing 10.0 wt. % sodium chloride

SMILES: CC(=O)OCC(=O)[C@@]1(O)CC[C@H]2[C@@H]3CCC4=CC(=O)CC[C@]4(C)[C@H]3[C@@H](O)C[C@@]21C [Hydrocortisone Acetate]
- PSA of bulk drug [1]: 17.07 microns
- Dissolution of bulk drug after 2 minutes ([2]; deionized water containing 0.3 wt. % SDS): 21.16 wt %

SMILES: NC(=O)N1c2ccccc2C=Cc2ccccc21 [Carbamazepine]
- PSA of bulk drug [1]: 391.4 microns
- Dissolution of bulk drug after 2 minutes ([2]; deionized water containing 5.0 wt. % sodium chloride): 4.83 wt %

SMILES: CC1(C)O[C@@H]2C[C@H]3[C@@H]4CCC5=CC(=O)C=C[C@]5(C)[C@@]4(F)[C@@H](O)C[C@]3(C)[C@]2(C(=O)CO)O1 [Triamcinalone Acetonide]
- PSA of bulk drug [1]: 7.707 microns
- Dissolution of bulk drug after 2 minutes [2, 3]: 5.38 wt %

SMILES: CC(C(=O)O)c1cccc(C(=O)c2ccccc2)c1 (stereo not shown) [Ketoprofen]
- PSA of bulk drug [1]: 42.73 microns

SMILES: C#C[C@]1(O)CC[C@H]2[C@@H]3CCC4=Cc5oncc5C[C@]4(C)[C@H]3CC[C@@]21C [Danazol]
- PSA of bulk drug [1]: 24.86 microns
- Dissolution of bulk drug after 2 minutes ([2]; deionized water, 0.75 wt. % SLS, 1.21 wt. % Tris, pH 9): 56.42 wt %

SMILES: CC(=O)N1CCN(c2ccc(OCC3COC(Cn4ccnc4)(c4ccc(Cl)cc4Cl)O3)cc2)CC1 (stereo not shown) [Ketoconazole]
- PSA of bulk drug [1]: 13.5 microns and 13.50 microns
- Dissolution of bulk drug after 2 minutes ([2]; deionized water containing 0.5 wt. % SLS): 26.1 wt % and 26.10 wt %

SMILES: C[C@]12C=CC(=O)C=C1CC[C@@H]1[C@@H]2C(=O)C[C@@]2(C)[C@H]1CC[C@]2(O)C(=O)CO [Prednisone]
- PSA of bulk drug [1]: 3.263 microns
- Dissolution of bulk drug after 2 minutes [2, 3]: 0.97 wt %
